{"source": "patent US20120015090A1", "about": "“READILY WATER-SOLUBLE MYRICITRIN COMPOSITION” (SAN-EI GEN F.F.I., INC., priority 2009, published 2012)", "key": {"[1]": {"assay": "Fading suppressing effect, fluorescent light irradiation (Experiment Example 5)", "settings": "pH 3.1, final MY 0.003%, γ-CD 0.01%, EMIQ […]", "description": "(§1) Specifically, a colorant-containing acidic drink of the formulation below was prepared. Then, a 3% MY preparation (product name: SanMelin**Y-AF*) and a MY/γ-CD inclusion product (MY: γ-CD=1:1.2) (containing 3% myricitrin) prepared in Example 2 were added to the drink to a final MY concentration of 0.003% or to a final γ-CD (Wacker Chemical) concentration of 0.01%.\n(§2) The drinks were irradiated with a UV Fade Meter (UV Long-Life Fade Meter FAL-3, Suga Test Instruments Co., Ltd.) or a fluorescent light (BIOTRON LH 300, NK System) for the durations presented in Tables 6 and 7. Absorbance was measured before and after the irradiation, and the percentage of remaining color (%) after the irradiation was calculated. Further, as a control test, a colorant-containing acidic drink was irradiated with the UV Fade Meter or fluorescent light as above without adding anything (no addition), and the percentage of remaining color (%) after the irradiation was calculated."}, "[2]": {"assay": "Flavor deterioration suppressing effect, sensory evaluation of drinks after light or heat stress test (Experiment Example 6)", "parameters": "key: 1 = no-addition blank drink, 5 = drink before the test", "settings": "added 0.1% (γ-CD 0.01%)", "description": "Various drinks mixed with the MY or MY composition were subjected to a light or heat stress test (accelerated test) to evaluate the flavor deterioration suppressing effect of the MY or MY composition.\nSpecifically, eight drinks were prepared in the formulations 1 to 8 below. Then, a 3% MY preparation (product name: SanMelin**Y-AF*), a MY/γ-CD inclusion product preparation (MY: γ-CD=1:1.2) (containing 3% MY) prepared in Example 2, a MY/γ-CD inclusion product preparation (MY: γ-CD=1:1.2) (containing 6% MY) prepared in Example 3, and γ-CD (Wacker Chemical) were added thereto in the final concentrations shown in FIG. 10.\nThe drinks prepared as above were tested under the severity conditions presented in Table 10, and changes in drink flavor after the test were examined by six panelists in a sensory evaluation. Evaluations were made according to the following criteria on a scale of 1 (a drink with no addition (blank)) to 5 (each drink before the test).\nTable 10 presents mean values of the scored points evaluated by the six panelists."}, "[3]": {"assay": "Fading suppressing effect, UV Fade Meter irradiation (Experiment Example 5)", "settings": "pH 3.1, final MY 0.003%, γ-CD 0.01%, EMIQ […]", "description": "as §1, §2"}}, "data": [{"smiles": "OC[C@H]1O[C@@H]2O[C@H]3[C@H](O)[C@@H](O)[C@@H](O[C@H]4[C@H](O)[C@@H](O)[C@@H](O[C@H]5[C@H](O)[C@@H](O)[C@@H](O[C@H]6[C@H](O)[C@@H](O)[C@@H](O[C@H]7[C@H](O)[C@@H](O)[C@@H](O[C@H]8[C@H](O)[C@@H](O)[C@@H](O[C@H]9[C@H](O)[C@@H](O)[C@@H](O[C@H]1[C@H](O)[C@H]2O)O[C@@H]9CO)O[C@@H]8CO)O[C@@H]7CO)O[C@@H]6CO)O[C@@H]5CO)O[C@@H]4CO)O[C@@H]3CO", "note": "[γ-CD, γ-cyclodextrin]", "values": [{"measurement": "percentage of remaining color (%)", "setting": "[1]; Cochineal colorant 0.05%, fluorescent light 1 D", "value": 64.2, "unit": "%"}, {"measurement": "percentage of remaining color (%)", "setting": "[1]; Elderberry colorant 0.05%, fluorescent light 6 D", "value": 63.8, "unit": "%"}, {"measurement": "percentage of remaining color (%)", "setting": "[1]; Gardenia blue colorant 0.05%, fluorescent light (time not given)", "value": 58.4, "unit": "%"}, {"measurement": "percentage of remaining color (%)", "setting": "[1]; Monascus colorant, fluorescent light 4 D", "value": 38.7, "unit": "%"}, {"measurement": "percentage of remaining color (%)", "setting": "[1]; Paprika colorant 0.05%, fluorescent light 6 D", "value": 71.2, "unit": "%"}, {"measurement": "percentage of remaining color (%)", "setting": "[1]; Purple corn colorant 0.05%, fluorescent light 2 D", "value": 65.5, "unit": "%"}, {"measurement": "percentage of remaining color (%)", "setting": "[1]; Purple sweet potato colorant 0.05%, fluorescent light 6 D", "value": 80.4, "unit": "%"}, {"measurement": "percentage of remaining color (%)", "setting": "[1]; Red cabbage colorant 0.05%, fluorescent light 4 D", "value": 62.8, "unit": "%"}, {"measurement": "percentage of remaining color (%)", "setting": "[1]; Safflower yellow colorant 0.05%, fluorescent light 6 D", "value": 68.1, "unit": "%"}, {"measurement": "percentage of remaining color (%)", "setting": "[1]; β-carotene 0.05%, fluorescent light 1 D", "value": 67.4, "unit": "%"}, {"measurement": "flavor change score, mean of six panelists", "setting": "[2]; Coffee, Fluorescent light (20000 lx, 16 hr, 15° C.), scale 1 to 5", "value": 2.4}, {"measurement": "flavor change score, mean of six panelists", "setting": "[2]; Grape drink, Fluorescent light (20000 lx, 15 hr, 15° C.), scale 1 (blank) to 5 (before test)", "value": 1.6}, {"measurement": "flavor change score, mean of six panelists", "setting": "[2]; Grapefruit drink (20% fruit juice), Fade Meter ([…]), scale 1 to 5", "value": 2.2}, {"measurement": "flavor change score, mean of six panelists", "setting": "[2]; Grapefruit drink (20% fruit juice), Fluorescent light (20000 lx, 21 hr, 10° C.), scale 1 to 5", "value": 2.0}, {"measurement": "flavor change score, mean of six panelists", "setting": "[2]; Grapefruit drink (20% fruit juice), Heat (55° C., 64 hr), scale 1 to 5", "value": 2.8}, {"measurement": "flavor change score, mean of six panelists", "setting": "[2]; Grapefruit drink (100% fruit juice), Fluorescent light (20000 lx, 18 hr, 15° C.), scale 1 to 5", "value": 2.1}, {"measurement": "flavor change score, mean of six panelists", "setting": "[2]; Lemon drink, Fluorescent light (20000 lx, 21 hr, 10° C.), scale 1 to 5", "value": 2.2}, {"measurement": "flavor change score, mean of six panelists", "setting": "[2]; Milk tea, Fluorescent light (20000 lx, 18 hr, 15° C.), scale 1 to 5", "value": 2.3}, {"measurement": "flavor change score, mean of six panelists", "setting": "[2]; Orange drink (20% fruit juice), Fluorescent light (20000 lx, 18 hr, 15° C.), scale 1 to 5", "value": 2.3}, {"measurement": "flavor change score, mean of six panelists", "setting": "[2]; Sour milk beverage, Fluorescent light (20000 lx, 18 hr, 15° C.), scale 1 to 5", "value": 2.7}, {"measurement": "percentage of remaining color (%)", "setting": "[3]; Cochineal colorant 0.05%, UV Fade Meter 6 H", "value": 64.3, "unit": "%"}, {"measurement": "percentage of remaining color (%)", "setting": "[3]; Elderberry colorant 0.05%, UV Fade Meter 2 H", "value": 68.5, "unit": "%"}, {"measurement": "percentage of remaining color (%)", "setting": "[3]; Gardenia blue colorant 0.05%, UV Fade Meter 19 H", "value": 68.6, "unit": "%"}, {"measurement": "percentage of remaining color (%)", "setting": "[3]; Grape juice colorant 0.1%, UV Fade Meter 2 H", "value": 75.0, "unit": "%"}, {"measurement": "percentage of remaining color (%)", "setting": "[3]; Monascus colorant, UV Fade Meter 3 H", "value": 30.2, "unit": "%"}, {"measurement": "percentage of remaining color (%)", "setting": "[3]; Paprika colorant 0.05%, UV Fade Meter 3 H", "value": 50.3, "unit": "%"}, {"measurement": "percentage of remaining color (%)", "setting": "[3]; Purple corn colorant 0.05%, UV Fade Meter 4 H", "value": 72.8, "unit": "%"}, {"measurement": "percentage of remaining color (%)", "setting": "[3]; Purple sweet potato colorant 0.05%, UV Fade Meter 7 H", "value": 46.5, "unit": "%"}, {"measurement": "percentage of remaining color (%)", "setting": "[3]; Red cabbage colorant 0.05%, UV Fade Meter 10 H", "value": 53.9, "unit": "%"}, {"measurement": "percentage of remaining color (%)", "setting": "[3]; Safflower yellow colorant 0.05%, UV Fade Meter 4 H", "value": 48.6, "unit": "%"}, {"measurement": "percentage of remaining color (%)", "setting": "[3]; β-carotene 0.05%, UV Fade Meter 17 H", "value": 68.5, "unit": "%"}]}]}
